Test results from patent publication US20230200390A1, “SELECTIVE HERBICIDES BASED ON SUBSTITUTED ISOXAZOLIN CARBOXAMIDES AND MEFENPYR-DIETHYL” (BAYER AKTIENGESELLSCHAFT, priority 2020, published 2023).

Key:
Assay type in all cases: in vivo
[1] = test system: spring barley, HORVS Montoya; experiment: Tank-mix; post-emergence: crop damage by herbicide with/without safener mefenpyr-diethyl
Method: (§1) Seeds of crops (spring wheat, TRZAS; spring barley, HORVS; maize, ZEAMA) were placed in sandy loam soil in peat pots, covered with soil and cultivated in a greenhouse under good growth conditions. Two to three weeks after sowing, the test plants were treated at the 1 to 3-leaf stage. The herbicide/safener active compound combinations according to the invention, formulated as wettable powders or emulsion concentrates, and, in parallel tests, the correspondingly formulated individual active compounds were sprayed onto the green parts of the plants in various dosages using an amount of water of 300 l/ha (converted).
(§2) The pots were returned under good growing conditions in a glasshouse and a visual assessment of herbicidal effects was made at intervals from 1 to 3 weeks after herbicide application (DAT=days after treatment). Assessment was on a percentage basis in comparison with untreated control plants (0%=no injury, 100%=complete kill).

[2] = test system: spring wheat, TRZAS Triso; experiment: as above
Method: as §1, §2

[3] = test system: spring barley, HORVS Montoya; experiment: Seed treatment with safener; post-emergence herbicide, crop damage; details: for HER effect + SAF / Reduction [%] / Reduction [Difference]: mefenpyr-diethyl 0.5 g a.i./kg seed
Text: (§3) For safener seed treatment trials, sufficient seed amounts of the respective crops (spring wheat (TRZAS); spring barley (HORVS)) were weighed into screw cap glass bottles with a minimum volume trice of the seeds.
(§4) As a first step, specified safeners formulated as wettable powder (WP) or wettable granules (WG) were weighed out for the required dosages (g a.i./kg seed), corresponding to the seed amounts. The safener amounts were mixed with a coloured slurry blind formulation type, prediluted with milk at 3.5% fat rate (25 mgs slurry formulation plus 2 ml milk per 10 grams of seed). A tube roller was used for coating. The solutions were gradually pipetted each on the rotating seeds followed by coating for min. 3 hours until all liquid had been soaked up by the seeds. Thereafter, the coated seeds were put flat on open trays for drying over night at room temperature.
(§5) Treated seeds were then placed into pots (7 cm diameter) on the surface of sandy loam, pressed down, flat covered with additional soil and finally covered with sandy soil, also pressed down, watered, and kept under good growth conditions in a greenhouse, until the plants had reached 2-leaf-stage (BBCH 12).
(§6) At that stage, post-emergence application of the specified herbicides was done on:
(§7) a) pot sets containing plants with safener-coated seeds as described above,
(§8) b) as a reference, pot sets of plants without seed treatment.
(§9) The herbicides were formulated as wettable powder (WP). Equivalent to the spray area, compound amounts were weighed out and diluted related to the water application rate (300 l/ha) to an aqueous suspension plus additive (1 l/ha MERO). Dosage related equivalents were conventionally sprayed on trays with the potted plants.
(§10) After application, the test plants were kept under good growth conditions in a greenhouse.
(§11) Assessment timings were 10 and 21 days after treatment (DAT) with the herbicide, by visual scoring of the crop damage in % (comparison of untreated with treated plants, either sprayed only with herbicide or with herbicide on plants with treated seeds).

[4] = test system: spring wheat, TRZAS Triso; experiment: as above; details: for HER effect + SAF [%] (crop damage) / Reduction [%] / Reduction [Difference]: mefenpyr-diethyl 0.5 g a.i./kg seed; for HER effect [%] (crop damage, herbicide without safener): no safener
Text: as §3, §4, §5, §6, §7, §8, §9, §10, §11

[5] = HER 8 g a.i./ha + mefenpyr-diethyl 50 g a.i./ha, 10 DAT
[6] = HER 32 g a.i./ha + mefenpyr-diethyl 100 g a.i./ha, 10 DAT
[7] = HER 32 g a.i./ha + mefenpyr-diethyl 100 g a.i./ha, 21 DAT
[8] = herbicide alone 32 g a.i./ha, 21 DAT
[9] = HER 8 g a.i./ha post-emergence, 10 DAT
[10] = HER 32 g a.i./ha post-emergence, 10 DAT
[11] = HER 1.5 g a.i./ha + mefenpyr-diethyl 50 g a.i./ha, 10 DAT
[12] = HER 6 g a.i./ha + mefenpyr-diethyl 50 g a.i./ha, 10 DAT
[13] = HER 24 g a.i./ha + mefenpyr-diethyl 100 g a.i./ha, 10 DAT
[14] = HER 8 g a.i./ha post-emergence, 21 DAT
[15] = HER 32 g a.i./ha post-emergence, 21 DAT
[16] = HER 2 g a.i./ha + mefenpyr-diethyl 100 g a.i./ha, 21 DAT
[17] = herbicide alone 2 g a.i./ha, 21 DAT
[18] = HER 2 g a.i./ha + mefenpyr-diethyl 50 g a.i./ha, 21 DAT

SMILES: COC(=O)C1CC(NC(=O)C2(OC)CC(c3cc(F)cc(F)c3)=NO2)CO1 (mixture of isomers) [Example 1.72]
- HER effect + SAF [1, 5]: 0%
- Reduction [%] [1, 5]: 100%
- Reduction [Difference] [1, 5]: 30
- HER effect + SAF [1, 6]: 10%
- Reduction [%] [1, 6]: 80%
- Reduction [Difference] [1, 6]: 40
- HER effect ([1]; herbicide alone 8 g a.i./ha, 10 DAT): 30%
- HER effect ([1]; herbicide alone 32 g a.i./ha, 10 DAT): 50%
- HER effect + SAF [2, 7]: 10%
- Reduction [%] [2, 7]: 83%
- Reduction [Difference] [2, 7]: 50
- HER effect [2, 8]: 60%
- HER effect + SAF [3, 9]: 0%
- Reduction [%] [3, 9]: 100%
- Reduction [Difference] [3, 9]: 30
- HER effect + SAF [3, 10]: 0%
- Reduction [%] [3, 10]: 100%
- Reduction [Difference] [3, 10]: 50
- HER effect ([3]; herbicide alone 8 g a.i./ha post-emergence, 10 DAT): 30%
- HER effect ([3]; herbicide alone 32 g a.i./ha post-emergence, 10 DAT): 50%
- HER effect + SAF [%] (crop damage) ([4]; 21 DAT, HER dose 8 g a.i./ha): 0%
- Reduction [%] ([4]; 21 DAT, HER dose 8 g a.i./ha): 100%
- Reduction [Difference] ([4]; 21 DAT, HER dose 8 g a.i./ha): 20
- HER effect [%] (crop damage, herbicide without safener) ([4]; 21 DAT, HER dose 8 g a.i./ha): 20%
- HER effect + SAF [%] (crop damage) ([4]; 21 DAT, HER dose 32 g a.i./ha): 10%
- Reduction [%] ([4]; 21 DAT, HER dose 32 g a.i./ha): 83%
- Reduction [Difference] ([4]; 21 DAT, HER dose 32 g a.i./ha): 50
- HER effect [%] (crop damage, herbicide without safener) ([4]; 21 DAT, HER dose 32 g a.i./ha): 60%

SMILES: CC(C)OC(=O)C1CC(NC(=O)C2(C)CC(c3cccc(F)c3)=NO2)CO1 (mixture of isomers) [Example 1.78]
- HER effect + SAF [1, 7]: 10%
- Reduction [%] [1, 7]: 75%
- Reduction [Difference] [1, 7]: 30
- HER effect [1, 8]: 40%
- HER effect + SAF [2, 11]: 0%
- Reduction [%] [2, 11]: 100%
- Reduction [Difference] [2, 11]: 20
- HER effect + SAF [2, 12]: 10%
- Reduction [%] [2, 12]: 86%
- Reduction [Difference] [2, 12]: 60
- HER effect + SAF [2, 13]: 30%
- Reduction [%] [2, 13]: 57%
- Reduction [Difference] [2, 13]: 40
- HER effect ([2]; herbicide alone 1.5 g a.i./ha, 10 DAT): 20%
- HER effect ([2]; herbicide alone 6 g a.i./ha, 10 DAT): 70%
- HER effect ([2]; herbicide alone 24 g a.i./ha, 10 DAT): 70%
- HER effect + SAF [3, 14]: 0%
- Reduction [%] [3, 14]: 100%
- Reduction [Difference] [3, 14]: 20
- HER effect + SAF [3, 15]: 10%
- Reduction [%] [3, 15]: 75%
- Reduction [Difference] [3, 15]: 30
- HER effect ([3]; herbicide alone 8 g a.i./ha post-emergence, 21 DAT): 20%
- HER effect ([3]; herbicide alone 32 g a.i./ha post-emergence, 21 DAT): 40%
- HER effect + SAF [%] (crop damage) ([4]; 10 DAT, HER dose 6 g a.i./ha): 30%
- Reduction [%] ([4]; 10 DAT, HER dose 6 g a.i./ha): 57%
- Reduction [Difference] ([4]; 10 DAT, HER dose 6 g a.i./ha): 40
- HER effect [%] (crop damage, herbicide without safener) ([4]; 10 DAT, HER dose 6 g a.i./ha): 70%
- HER effect + SAF [%] (crop damage) ([4]; 10 DAT, HER dose 24 g a.i./ha): 30%
- Reduction [%] ([4]; 10 DAT, HER dose 24 g a.i./ha): 57%
- Reduction [Difference] ([4]; 10 DAT, HER dose 24 g a.i./ha): 40
- HER effect [%] (crop damage, herbicide without safener) ([4]; 10 DAT, HER dose 24 g a.i./ha): 70%

SMILES: C=CC1(C(=O)NC2C=CC(C(=O)OC)C2)CC(c2cc(F)cc(F)c2)=NO1 (stereo not shown) [Example 1.26]
- HER effect + SAF [1, 16]: 0%
- Reduction [%] [1, 16]: 100%
- Reduction [Difference] [1, 16]: 60
- HER effect [1, 17]: 60%
- HER effect + SAF [2, 18]: 50%
- Reduction [%] [2, 18]: 44%
- Reduction [Difference] [2, 18]: 40
- HER effect [2, 17]: 90%
- HER effect + SAF [%] (crop damage) ([4]; 21 DAT, HER dose 2 g a.i./ha): 30%
- Reduction [%] ([4]; 21 DAT, HER dose 2 g a.i./ha): 67%
- Reduction [Difference] ([4]; 21 DAT, HER dose 2 g a.i./ha): 60
- HER effect [%] (crop damage, herbicide without safener) ([4]; 21 DAT, HER dose 2 g a.i./ha): 90%
- HER effect + SAF [%] (crop damage) ([4]; 21 DAT, HER dose 8 g a.i./ha): 70%
- Reduction [%] ([4]; 21 DAT, HER dose 8 g a.i./ha): 25%
- Reduction [Difference] ([4]; 21 DAT, HER dose 8 g a.i./ha): 23
- HER effect [%] (crop damage, herbicide without safener) ([4]; 21 DAT, HER dose 8 g a.i./ha): 93%
